Here are results for three compounds from patent US8119681B2, “2-[1-phenyl-5-hydroxy or methoxy-4alpha-methyl-hexahydrocyclopenta [ƒ]indazole-5-YL]ethyl phenyl derivatives as glucocorticoid receptor ligands” (Merck Sharp & Dohme Corp., priority 2006, dated 2012).

What all share (assay type): cell-based
In assay [1] the target is T1, human GR (Homo sapiens, UniProt P04150).
T1 sequence (P04150 1-777): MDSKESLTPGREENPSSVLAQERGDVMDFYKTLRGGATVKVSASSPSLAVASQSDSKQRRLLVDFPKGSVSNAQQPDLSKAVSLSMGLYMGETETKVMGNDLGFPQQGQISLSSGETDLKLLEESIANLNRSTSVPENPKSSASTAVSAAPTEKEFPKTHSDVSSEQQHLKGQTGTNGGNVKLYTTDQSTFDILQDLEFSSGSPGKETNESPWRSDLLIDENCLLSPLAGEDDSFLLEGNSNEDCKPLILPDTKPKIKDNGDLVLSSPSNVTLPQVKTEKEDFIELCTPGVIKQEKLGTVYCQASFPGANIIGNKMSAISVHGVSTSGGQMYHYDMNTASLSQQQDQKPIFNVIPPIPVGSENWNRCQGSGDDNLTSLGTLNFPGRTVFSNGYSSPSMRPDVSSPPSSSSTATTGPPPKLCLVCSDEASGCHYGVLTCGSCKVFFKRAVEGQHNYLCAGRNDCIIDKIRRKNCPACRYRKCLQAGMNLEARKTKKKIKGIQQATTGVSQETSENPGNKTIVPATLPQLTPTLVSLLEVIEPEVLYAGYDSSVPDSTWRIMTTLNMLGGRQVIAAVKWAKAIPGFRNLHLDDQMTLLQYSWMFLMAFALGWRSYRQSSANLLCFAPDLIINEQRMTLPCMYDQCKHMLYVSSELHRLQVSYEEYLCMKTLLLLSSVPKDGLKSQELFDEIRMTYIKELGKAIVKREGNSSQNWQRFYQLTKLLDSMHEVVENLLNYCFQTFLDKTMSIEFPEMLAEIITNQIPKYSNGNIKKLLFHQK
In words: Trans-Activation Modulation of Glucocorticoid Receptor (GRAMMER), MMTV-LUC reporter gene. Set-up: endogenous in cells. The note with it: Table 1, Emax relative to 300 nM dexamethasone. (In general: Reporter assays use an easily measured gene product as a stand-in for the process of interest.)

Assay [2] addresses T1, human GR. In words: Transrepression Assay (GITAR), TNFα-β-lactamase reporter gene in U937 cells. Set-up: U937 cells contain an endogenous glucocorticoid receptor (GR); endogenous in cells; host or cells: U937 cells stably transfected with the TNF-α promoter/β-lactamase reporter only. The note with it: for EC50: IP = inflection point, read-out: Transrepression U937 Cells GITAR IP; for GITAR > GRAMM % SEP: separation of GITAR Emax over GRAMMER Emax; for Emax: U-937. A digest of the protocol: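 Reporter readout used CCF2-AM loading for 70–90 min at room temperature after overnight (~18 h, 37 °C) PMA (5 ng/ml final) and LPS (100 ng/ml final) stimulation of compound-treated (30–45 min) TNFα-β-lactamase U937 cells expressing native GR. Activity was normalised to 100 nM dexamethasone repression.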

Assay [3] has as its target T1, human GR. In words: Trans-Activation Modulation of Glucocorticoid Receptor (GRAMMER), MMTV-LUC reporter gene. Set-up: endogenous in cells. The following applies: for EC50: Table 1, A549 cells, IP = inflection point, read-out: Transactivation A549 Cells GRAMMER IP; for Emax: A549, read-out: Transactivation A549 Cells GRAMMER Emax (%).
[4] abbreviates: 100 nM dexamethasone = 100% activity, read-out: maximal activity in the transrepression assay.
Where [5] appears, read: Table 1, U937 cells, activity repressed by 100 nM dexamethasone = 100%, read-out: Transrepression U937 Cells GITAR Emax (%).

For `C[C@]12Cc3cnn(-c4ccc(F)cc4)c3C=C1CC[C@@]2(O)/C=C/c1ccccc1S(N)(=O)=O` [Example 160, 2-{(E)-2-[(4αS,5R)-1-(4-fluorophenyl)-5-hydroxy-4α-methyl-1,4,4α,5,6,7-hexahydrocyclopenta[f]indazol-5-yl]vinyl}benzenesulfonamide], at human GR [1], the “Transactivation A549 Cells GRAMMER Emax (%)” value came to 30%. The EC50 at human GR [2] (Table 1, U937 cells) came to 0.274 µM; on human GR [3], 0.118 µM. For the same compound, the “Transrepression U937 Cells GITAR Emax (%)” value on human GR [2] (Table 1, U937 cells, activity repressed by 100 nM dexamethasone = 100%) came to 72%. Further, the “GITAR > GRAMM % SEP” value at human GR [2] (Table 1) was determined as 42%.

Turning to `CCC(O)(C(N)=O)c1ccccc1CC[C@]1(O)CCC2=Cc3c(cnn3-c3ccc(F)cc3)C[C@@]21C` (stereo partly drawn) [Example 199, 2-(2-{2-[(4αS,5R)-1-(4-fluorophenyl)-5-hydroxy-4α-methyl-1,4,4α,5,6,7-hexahydrocyclopenta[f]indazol-5-yl]ethyl}phenyl)-2-hydroxybutanamide], the EC50 was found to be 0.077 µM on human GR [2] (Table 1, U937 cells) and 0.083 µM at human GR [3]. In addition, at human GR [2] (Table 1), the “GITAR > GRAMM % SEP” value was 32%. The Emax on human GR [2] (setting [4]) was 5 to 100%; at human GR [2] (setting [5]), 68%; on human GR [3], 36%.

Take `CC(C)C(O)(C(N)=O)c1ccccc1CC[C@]1(O)CCC2=Cc3c(cnn3-c3ccc(F)cc3)C[C@@]21C` (stereo partly drawn) [Example 201, 2-(2-{2-[(4αS,5R)-1-(4-fluorophenyl)-5-hydroxy-4α-methyl-1,4,4α,5,6,7-hexahydrocyclopenta[f]indazol-5-yl]ethyl}phenyl)-2-hydroxy-3-methylbutanamide]: the EC50 was 0.04 µM at human GR [2] (Table 1, U937 cells) and 0.047 µM on human GR [3]. Further, the “GITAR > GRAMM % SEP” value on human GR [2] (Table 1) worked out at 38%. Also, the Emax on human GR [2] (setting [4]) was 5 to 100%; on human GR [2] (setting [5]) it was 78%; on human GR [3], 40%.
